Among the data in patent EP4353712A1 (Biodol Therapeutics, priority 2022, dated 2024) are IC50 values, retold here.

Each structure is given as a SMILES string.

This test has as its target T1, FLT3 (Homo sapiens, UniProt P36888).
T1 construct: expressed in transfected cells; host or cells: HEK293T
T1 sequence (P36888 27-993): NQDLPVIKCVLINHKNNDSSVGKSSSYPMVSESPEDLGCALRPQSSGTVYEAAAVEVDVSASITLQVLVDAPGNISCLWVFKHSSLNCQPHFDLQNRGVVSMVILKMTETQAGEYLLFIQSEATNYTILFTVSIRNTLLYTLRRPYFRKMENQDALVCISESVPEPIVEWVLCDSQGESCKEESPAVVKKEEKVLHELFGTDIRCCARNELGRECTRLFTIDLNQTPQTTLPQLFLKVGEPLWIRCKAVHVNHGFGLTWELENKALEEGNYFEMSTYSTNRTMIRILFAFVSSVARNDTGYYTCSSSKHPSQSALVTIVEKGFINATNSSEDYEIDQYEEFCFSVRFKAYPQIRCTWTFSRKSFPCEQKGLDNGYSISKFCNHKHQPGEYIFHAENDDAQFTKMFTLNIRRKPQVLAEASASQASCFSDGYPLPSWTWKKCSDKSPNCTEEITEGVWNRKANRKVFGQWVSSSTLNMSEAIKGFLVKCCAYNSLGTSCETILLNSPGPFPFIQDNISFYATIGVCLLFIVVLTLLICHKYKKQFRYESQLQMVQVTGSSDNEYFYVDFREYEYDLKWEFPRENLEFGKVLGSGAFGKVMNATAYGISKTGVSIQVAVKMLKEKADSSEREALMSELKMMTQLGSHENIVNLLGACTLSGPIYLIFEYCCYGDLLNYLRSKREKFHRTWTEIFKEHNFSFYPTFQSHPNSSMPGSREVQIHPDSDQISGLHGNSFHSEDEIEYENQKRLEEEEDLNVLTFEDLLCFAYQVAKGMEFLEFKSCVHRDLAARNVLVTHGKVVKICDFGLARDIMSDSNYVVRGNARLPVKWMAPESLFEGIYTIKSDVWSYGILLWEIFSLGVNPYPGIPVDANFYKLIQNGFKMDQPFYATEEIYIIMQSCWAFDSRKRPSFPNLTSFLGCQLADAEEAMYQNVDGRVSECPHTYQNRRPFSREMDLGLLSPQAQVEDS
The test can be described thus: HTRF binding assay of FL to FLT3 (TR-FRET, SNAP-FLT3 transfected HEK293T cells). As to conditions: HEK293T cells transfected with SNAP-FLT3, labelled with SNAP-Lumi4-Tb; compounds 1 h at room temperature, then FL-d2 (0.5 nM), read after 20 h; 12 dilutions in triplicates, performed twice; read-out: Inhibition of FLT3 binding IC50, binding. The protocol:
The binding of FL to FLT3 was measured by a Homologous Time-Resolved Fluorescence (HTRF) assay (Degorce et al., Current Chemical Genomics, 2009, 3, 22-32), which involves resonance energy transfer between a donor, Lumi4-Tb-donor-derivatized benzylguanine substrate (SNAP-Lumi4-Tb, excitation: 337 nm, emission: 630 nm, Cisbio, France), transfected in HEK cells, and an acceptor, red fluorescent FL (FL-d2, excitation: 620 nm, emission: 660 nm, Cisbio, France). When FL-d2 binds to the SNAP-Lumi4-Tb-tagged FLT3 receptor, the proximity of both fluorophores allows the time-resolved Förster resonance energy transfer (TR-FRET) signal to occur and the binding is measured as the ratio between the fluorescent emissions at 660 to 620 nm.
The detailed method is described in Rivat et al. (Nature Communications, 2018, 9 :1042). Briefly, HEK293T cells were transfected with a pCDNA3.1 SNAP-FLT3 plasmid by using Lipofectamine (Invitrogen), and were than labelled with SNAP-Lumi4-Tb. Plates containing attached transfected HEK293T cells were incubated with compounds of formula (I) for 1 h at room temperature. A series of 12 dilutions in triplicates was used for each compound and the experiment was performed twice. Then FL-d2 (0.5 nM) was added and the TR-FRET signal was read after 20 h incubation at room temperature with a HTRF-compatible reader (Envision, Perkin Elmer) allowing a donor excitation at 337 nm and a signal collection both at 615 nm and 665 nm (20 flashes, delay 50 µs, integration time 400 µs). Then HTRF ratio, obtained by dividing the acceptor signal (665 nm) by the donor signal (615 nm), was calculated at each concentration of test compounds. Non-specific binding was measured in the presence 50 µM of BDT001 (Rivat et al., ibid.). Concentration giving 50 % inhibition (IC50) were calculated by non-linear regression analysis for a one-site model, with variable slope (Prism®, Graphpad software, USA).
Background: TR-FRET usually uses a lanthanide donor and a delayed reading to cut background.
Turning to `CN1CCC(c2ccc(C(=O)Nc3ccc(F)c4cccnc34)cc2)CC1` [(1), N-(5-fluoroquinolin-8-yl)-4-(1-methylpiperidin-4-yl)benzamide], the IC50 worked out at 1200 nM.
For `CN1CCC(c2ccc(C(=O)Nc3ccc(F)c4cnccc34)cc2)CC1` [(2), N-(8-fluoroisoquinolin-5-yl)-4-(1-methylpiperidin-4-yl)benzamide], the 50% inhibitory concentration (IC50) was 1400 nM.
Regarding `CN1CCC(c2ccc(C(=O)Nc3ccc(F)c4ccncc34)cc2)CC1` [(3), N-(5-fluoroisoquinolin-8-yl)-4-(1-methylpiperidin-4-yl)benzamide], the concentration for half-maximal inhibition (IC50) amounted to 1800 nM.
With `CN1CCC(c2ccc(C(=O)Nc3ccc(F)c4ncccc34)cc2)CC1` [(4), N-(8-fluoroquinolin-5-yl)-4-(1-methylpiperidin-4-yl)benzamide], the IC50 came out at 5300 nM.
The figure for `CN1CCC(c2ccc(C(=O)Nc3ccc(F)c4nccnc34)cc2)CC1` [(5), N-(8-fluoroquinoxalin-5-yl)-4-(1-methylpiperidin-4-yl)benzamide] is 400 nM; for `CN1CCC(c2ccc(C(=O)Nc3cccc4ncccc34)cc2)CC1` [(6), 4-(1-methylpiperidin-4-yl)-N-(quinolin-5-yl)benzamide] it is 1300 nM; for `CN1CCC(c2ccc(C(=O)Nc3cccc4cnccc34)cc2)CC1` [(7), N-(isoquinolin-5-yl)-4-(l-methylpiperidin-4-yl)benzamide] it is 800 nM.
The result for `CN1CCC(c2ccc(C(=O)Nc3cccc4ccncc34)cc2)CC1` [(8), N-(isoquinolin-8-yl)-4-(1-methylpiperidin-4-yl)benzamide] reads 800 nM; that for `CN1CCC(c2ccc(C(=O)Nc3cccc4cccnc34)cc2)CC1` [(9), 4-(1-methylpiperidin-4-yl)-N-(quinolin-8-yl)benzamide], 1500 nM.
Consider `CN(C)CCOc1ccc(C(=O)Nc2cccc3ccncc23)cc1` [(10), 4-[2-(dimethylamino)ethoxy]-N-(isoquinolin-8-yl)benzamide], for which the half-maximal inhibitory concentration (IC50) turned out to be 800 nM.
Turning to `CN(C)CCOc1ccc(C(=O)Nc2cccc3cccnc23)cc1` [(11), 4-[2-(dimethylamino)ethoxy]-N-(quinolin-8-yl)benzamide], the IC50 worked out at 2900 nM.
The figure for `CN1CCC(c2ccc(C(=O)Nc3cccc4cccnc34)c(F)c2)CC1` [(12), 2-fluoro-4-(1-methylpiperidin-4-yl)-N-(quinolin-8-yl)benzamide] is 1800 nM.
Turning to `CN1CCC(c2ccc(C(=O)Nc3cccc4cnccc34)cc2F)CC1` [(13), 3-fluoro-N-(isoquinolin-5-yl)-4-(1-methylpiperidin-4-yl)benzamide], the IC50 was determined as 1400 nM.
For the compound `CN(C)CCOc1ccc(C(=O)Nc2cccc3cnccc23)cc1` [(14), 4-(2-(dimethylamino)ethoxy)-N-(isoquinolin-5-yl)benzamide], the IC50 came out at 900 nM.
On to `CN(C)CCOc1ccc(C(=O)Nc2cccc3ncccc23)cc1` [(15), 4-(2-(dimethylamino)ethoxy)-N-(quinolin-5-yl)benzamide], for which the IC50 was determined as 1700 nM.
The figure for `COc1cc(C2CCN(C)CC2)ccc1C(=O)Nc1cccc2cccnc12` [(16), 2-methoxy-4-(1-methylpiperidin-4-yl)-N-(quinolin-8-yl)benzamide] is 600 nM.
The result for `COc1cc(C(=O)Nc2cccc3cnccc23)ccc1C1CCN(C)CC1` [(17), N-(isoquinolin-5-yl)-3-methoxy-4-(1-methylpiperidin-4-yl)benzamide] reads 900 nM; that for `CN1CCC(c2ccc(C(=O)Nc3cccc4cccnc34)c(C(F)(F)F)c2)CC1` [(18), 4-(1-methylpiperidin-4-yl)-N-(quinolin-8-yl)-2-(trifluoromethyl)benzamide], 1700 nM; that for `CN(C)CCOc1ccc(C(=O)Nc2cccc3cnncc23)cc1` [(19), 4-[2-(dimethylamino)ethoxy]-N-(phthalazin-5-yl)benzamide], 25000 nM.
The figure for `CN(C)CCOc1ccc(C(=O)Nc2ccc(F)c3ncccc23)cc1` [(20), 4-(2-(dimethylamino)ethoxy)-N-(8-fluoroquinolin-5-yl)benzamide] is 6200 nM; for `CN1CCC(c2ccc(C(=O)Nc3cccc4cnccc34)cc2C#N)CC1` [(21), 3-cyano-N-(isoquinolin-5-yl)-4-(1-methylpiperidin-4-yl)benzamide] it is 2000 nM; for `CN(C)CCOc1ccc(C(=O)Nc2ccc(F)c3ccncc23)cc1` [(22), 4-(2-(dimethylamino)ethoxy)-N-(5-fluoroisoquinolin-8-yl)benzamide] it is 1900 nM.
In the case of `CN(C)CCOc1ccc(C(=O)Nc2ccc(F)c3nccnc23)cc1` [(23), 4-(2-(dimethylamino)ethoxy)-N-(8-fluoroquinoxalin-5-yl)benzamide], the IC50 worked out at 500 nM.
`CN1CCN(c2ccc(C(=O)Nc3cccc4cnccc34)cc2F)CC1` [(24), 3-fluoro-N-(isoquinolin-5-yl)-4-(4-methylpiperazin-1-yl)benzamide]: the IC50 was determined as 1100 nM.
Turning to `CN1CCC(c2ccc(C(=O)Nc3cccc4cnccc34)c(S(C)(=O)=O)c2)CC1` [(25), N-(isoquinolin-5-yl)-2-methanesulfonyl-4-(1-methylpiperidin-4-yl)benzamide], the IC50 was determined as 2600 nM.
For `CN(C)CCOc1ccc(C(=O)Nc2ccc(F)c3cccnc23)cc1` [(26), 4-[2-(dimethylamino)ethoxy]-N-(5-fluoroquinolin-8-yl)benzamide], the half-maximal inhibitory concentration (IC50) was 1400 nM.
The result for `CN1CCC(c2ccc(C(=O)Nc3cccc4ncccc34)cc2C(F)(F)F)CC1` [(27), 4-(1-methylpiperidin-4-yl)-N-(quinolin-5-yl)-3-(trifluoromethyl)benzamide] reads 3600 nM; that for `CN1CCC(c2ccc(C(=O)Nc3cccc4nccnc34)cc2)CC1` [(28), 4-(1-methylpiperidin-4-yl)-N-(quinoxalin-5-yl)benzamide], 400 nM.
The figure for `Cc1cc(C(=O)Nc2cccc3ncccc23)ccc1N1CCN(C)CC1` [(29), 3-methyl-4-(4-methylpiperazin-1-yl)-N-(quinolin-5-yl)benzamide] is 1200 nM.
With `CN1CCC(c2ccc(C(=O)Nc3ccc(Cl)c4ncccc34)cc2)CC1` [(30), N-(8-chloroquinolin-5-yl)-4-(1-methylpiperidin-4-yl)benzamide], the IC50 came out at 1900 nM.
The result for `CN(C)CCOc1ccc(C(=O)Nc2cccc3nccnc23)cc1` [(31), 4-[2-(dimethylamino)ethoxy]-N-(quinoxalin-5-yl)benzamide] reads 700 nM; that for `CN(C)CCOc1ccc(C(=O)Nc2ccc(Cl)c3ncccc23)cc1` [(32), N-(8-chloroquinolin-5-yl)-4-[2-(dimethylamino)ethoxy]benzamide], 2400 nM; that for `CN(C)CCOc1ccc(C(=O)Nc2ccc(F)c3cnccc23)cc1` [(33), 4-[2-(dimethylamino)ethoxy]-N-(8-fluoroisoquinolin-5-yl)benzamide], 2300 nM.
For `COc1ccc(NC(=O)c2ccc(OCCN(C)C)cc2)c2ccncc12` [(34)], the concentration for half-maximal inhibition (IC50) was 500 nM.
As to `CN1CCN(c2ccc(C(=O)Nc3cccc4cccnc34)cc2)CC1` [(35), 4-(4-methylpiperazin-1-yl)-N-(quinolin-8-yl)benzamide], the IC50 turned out to be 1700 nM.

The term IC50 denotes the concentration at which inhibition is half-maximal.
